Assay [1] has as its system ID211 patient-derived PDAC 2D line (post-FOLFIRINOX). Kind of assay: normalised area under dose-response curve (viability relative to DMSO, 7 doses up to 10 µM) (fraction (AUC)); higher = less sensitive (more viability retained). The settings on record: 72 h; top dose: 10 µM. A digest of the protocol: (§1)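 Patient-derived 2D PDAC cells grown out from organoids were seeded robotically at 1,500–3,000 cells/well in 96-well plates and incubated overnight at 37°C, 5% CO2. SelleckChem library compounds were added at seven concentrations (3-fold dilution series, highest 10 µM) for 72 h. CellTiter-Glo luminescence was read after 10 min. Viability was normalised to the DMSO control, and area under the dose-response curve was derived with the GRmetrics R package.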

Assay [2] relates to ID188 patient-derived PDAC 2D line (pre-FOLFIRINOX). The description is as above. The settings on record: 72 h; top dose: 10 µM. A digest of the protocol: as §1

Structures can show the parent of a compound that is named as a salt.

In the case of `CC(C)(C)c1cc(NC(=O)Nc2ccc(-c3cn4c(n3)sc3cc(OCCN5CCOCC5)ccc34)cc2)no1` [Quizartinib (AC220)], the “normalised area under dose-response curve” value (“normalised area” for short) in assay [1] was 0.809; in assay [2], 0.974.
For the compound `C=CCNc1ncnc2ccc(Br)cc12` [SMER28], the “normalised area” value in assay [1] was determined as 0.825; in assay [2], 0.997.
In the case of `O=C(Nc1ccccc1-c1cn2c(CN3CCNCC3)csc2n1)c1cnc2ccccc2n1` [SRT1720 HCl], the “normalised area” value in assay [1] was 0.812; in assay [2], 0.865.
On to `Cn1cc(-c2cnn3c(N)c(Br)c([C@@H]4CCCNC4)nc23)cn1`, for which the “normalised area” value in assay [1] came out at 0.9; in assay [2], 0.873.
The like results for `CC(C(=O)Nc1cccc(/N=C/c2c(O)ccc3ccccc23)c1)c1ccccc1` (configuration not stated) [Salermide] were, in that order, 0.858 and 0.876.
With `COc1cc(Nc2ncc3c(n2)-c2ccc(Cl)cc2C(c2c(F)cccc2OC)=NC3)ccc1C(=O)O` [Alisertib (MLN8237)], the “normalised area” value in assay [1] turned out to be 0.88; in assay [2] it was 0.799.
For `Cn1c(=O)cc(N2CCC[C@@H](N)C2)n(Cc2ccccc2C#N)c1=O` [Alogliptin], the entries for the “normalised area” value in assay [1] and in assay [2] were 0.817 and 0.952, respectively.
The like results for `CC(=O)c1cc2c(o1)C(=O)c1ccccc1C2=O` [Napabucasin] were, in that order, 0.708 and 0.65.
For `Clc1ccc(NN=C(c2ccccc2)c2ccccn2)nc1` [JIB-04] the same measures were 0.662 and 0.641.
The like results for `CN(C(=O)CNC(=O)/C=C/c1cccc(Cl)c1)C1CCS(=O)(=O)CC1` [ML264] were, in that order, 0.894 and 0.796.
`CN(CCNc1ccnc2cc(Cl)ccc12)CCNc1ccnc2cc(Cl)ccc12` [Lys05]: the “normalised area” value in assay [1] is 0.796; in assay [2], 0.921.
Turning to `Cc1nc(Nc2cnn(C3CCNCC3)c2)nc2c1N(C)C(=O)c1cc3ccccc3cc1N2C` [HTH-01-015], the entries for the “normalised area” value in assay [1] and in assay [2] were 0.823 and 1.2, respectively.
As to `CC(=O)c1cc([N+](=O)[O-])c(Sc2ccc(F)cc2F)s1`, the results for the “normalised area” value in assay [1] and in assay [2] were 0.966 and 0.93, respectively.
For `CCOC(=O)Nc1cc(-c2ccc(C)c(NS(C)(=O)=O)c2)nn2c(C)nnc12` [Bromosporine] the same measures were 0.801 and 0.878.
For `CCN1C(=O)CNc2ncc(-c3ccc(-c4nc[nH]n4)nc3C)nc21` [CC-115] the same measures were 0.7 and 0.718.
Regarding `CC(C)Oc1ccc(C(=O)N[C@H](CNC(=O)CN(C)C)Cc2ccc(-c3cn4cccc([C@H](C)O)c4n3)cc2)cc1Cl`, the “normalised area” value in assay [1] was 0.709; in assay [2] it was 0.64.
The like results for `C=CC(=O)Nc1cccc(Nc2nc(Nc3ccc(OCCOC)cc3)ncc2F)c1` [Spebrutinib (CC-292, AVL-292)] were, in that order, 0.888 and 0.709.
The like results for `CS(=O)(=O)N1CCN(Cc2cc3nc(-c4cccc5[nH]ncc45)nc(N4CCOCC4)c3s2)CC1` [Pictilisib (GDC-0941)] were, in that order, 0.596 and 0.683.
Turning to `COC(=O)c1ccc2c(C(=Nc3ccc(N(C)C(=O)CN4CCN(C)CC4)cc3)c3ccccc3)c(O)[nH]c2c1` [Nintedanib Ethanesulfonate Salt], the “normalised area” value came out at 0.791 in assay [1] and 0.833 in assay [2].
In the case of `COc1cc(OC)cc(N(CCNC(C)C)c2ccc3ncc(-c4cnn(C)c4)nc3c2)c1`, the entries for the “normalised area” value in assay [1] and in assay [2] were 0.893 and 0.927, respectively.
For `CC[C@@]1(O)C(=O)OCc2c1cc1n(c2=O)Cc2cc3c(CN(C)C)c(O)ccc3nc2-1` [Topotecan HCl] the same measures were 0.464 and 0.523.
For `CC(c1cc2ccccc2s1)N(O)C(N)=O` (configuration not stated) [Zileuton] the same measures were 0.859 and 0.817.
The like results for `CC(=O)Nc1cccc(-n2c(=O)n(C3CC3)c(=O)c3c(Nc4ccc(I)cc4F)n(C)c(=O)c(C)c32)c1` were, in that order, 0.197 and 0.553.
In the case of `CC(C)(C#N)c1ccc(N2C(=O)OCc3cnc4ccc(-c5cnc6ccccc6c5)cc4c32)cc1`, the “normalised area” value in assay [1] came out at 0.804; in assay [2] it was 0.825.
For `Cc1cc(Cl)ccc1OCCCC(=O)NO` [Droxinostat] the same measures were 0.936 and 0.946.
For `CN(c1ncccc1CNc1nc(Nc2ccc3c(c2)CC(=O)N3)ncc1C(F)(F)F)S(C)(=O)=O`, the “normalised area” value amounted to 0.795 in assay [1] and 0.89 in assay [2].
For the compound `COc1ccc(N2C(=O)/C(=C\c3ccc([N+](=O)[O-])s3)SC2=S)cc1` [CCF642], the results for the “normalised area” value in assay [1] and in assay [2] were 0.874 and 0.746, respectively.
The like results for `Cc1ccc(NC(=O)c2ccc(CN3CCN(C)CC3)cc2)cc1Nc1nc(-c2cccnc2)cs1` [Masitinib (AB1010)] were, in that order, 0.83 and 0.959.
For `CC(C)c1cc(-c2n[nH]c(=O)n2-c2ccc3c(ccn3C)c2)c(O)cc1O` [Ganetespib (STA-9090)] the same measures were 0.266 and 0.483.
For `Nc1cccc(S(=O)(=O)N2CCCN(S(=O)(=O)c3ccc4c(c3)OCCO4)CC2)c1` [DASA-58], the “normalised area” value in assay [1] was 0.808; in assay [2] it was 0.918.
For `Cc1sc2c(c1C)C(c1ccc(Cl)cc1)=N[C@@H](CC(=O)Nc1ccc(O)cc1)c1nnc(C)n1-2` [OTX015] the same measures were 0.631 and 0.817.
The like results for `CC(C)N(C[C@H]1O[C@@H](n2cnc3c(N)ncnc32)[C@H](O)[C@@H]1O)[C@H]1C[C@@H](CCc2nc3cc(C(C)(C)C)ccc3[nH]2)C1` [Pinometostat (EPZ5676)] were, in that order, 0.8 and 0.916.
Consider `NC(=O)c1ccc(I)c([N+](=O)[O-])c1` [Iniparib (BSI-201)], for which the “normalised area” value in assay [1] is 0.952; in assay [2], 0.939.
The like results for `Cc1cc2c3c([n+](C)c4ccc(F)cc4c3c1)-c1cc(F)ccc1N2C` [RHPS 4 methosulfate] were, in that order, 0.906 and 0.945.
The like results for `Cc1cc(C)nc(NC(=S)N2CCN(Cc3ccc(C(F)(F)F)cc3)CC2)c1` [NCT-503] were, in that order, 0.909 and 0.954.
For `O=c1cc(-c2cccc3c2Sc2ccccc2S3)oc(N2CCOCC2)c1` the same measures were 0.834 and 0.945.

(Values after the supplement of paper PMC8988213.)
